Data on 26 compounds can be found in patent publication US12247015B2, “3-amino-4H-benzo[e][1,2,4]thiadiazine 1,1-dioxide derivatives as inhibitors of MRGX2” (Solent Therapeutics, LLC, priority 2019, dated 2025).

The test deals with hMRGX2 (CHO-K1 cells overexpressing MRGX2) (Homo sapiens (Human), UniProt Q96LB1). The experiment in a line: In vitro inhibition (EC50) of intracellular calcium flux, FLIPR Tetra, substance P stimulation. As to conditions: stimulated with MRGX2 ligand substance P, FLIPR Calcium 5, read-out: hMRGX2 Cellular Potency (pEC50) (converted). The class given is cell-based. Here is the method: In Vitro Inhibition (EC50) of Intracellular Calcium Flux
The release of intracellular calcium following stimulation of cells with substance P in the presence or absence of inhibitor compounds was measured using the FLIPR Tetra® system. CHO-K1 cells overexpressing MRGX2 were seeded into 384-well plates (Black clear bottom, TC-treated, Fisher #07-200-655) and incubated overnight to allow for cell attachment. Media was removed, and 1× loading buffer (FLIPR® Calcium 5 assay solution, Molecular Devices, per manufacturer specifications) was added. The plates were incubated at 37° C. for 30 minutes. Test compounds were added to cells (11-point dose response, 10 µM maximum concentration) and fluorescence measured (120 seconds, in real time) using the FLIPR Tetra® system. Immediately following, MRGX2 ligand substance P was added at a final concentration of 1 µM and fluorescence measured (120 seconds, in real time) using the FLIPR Tetra® system. The data for the examples are reported as pEC50.
(A change in cytosolic calcium serves as a functional read-out for many receptors and channels.)

hMRGX2 (CHO-K1 cells overexpressing MRGX2), sequence (Q96LB1 whole entry): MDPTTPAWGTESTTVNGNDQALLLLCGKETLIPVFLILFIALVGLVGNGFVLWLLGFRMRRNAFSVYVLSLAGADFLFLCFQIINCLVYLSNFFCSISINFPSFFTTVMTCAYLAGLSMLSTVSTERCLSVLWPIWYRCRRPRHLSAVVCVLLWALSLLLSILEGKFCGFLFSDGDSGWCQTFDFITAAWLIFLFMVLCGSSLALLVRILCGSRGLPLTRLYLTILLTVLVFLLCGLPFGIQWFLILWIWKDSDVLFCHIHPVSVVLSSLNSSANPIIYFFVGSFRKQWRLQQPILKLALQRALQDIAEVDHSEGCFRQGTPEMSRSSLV

As for `Cc1nn(C)cc1-c1cccc2c1NC(NCc1ccc(Cl)cn1)=NS2(=O)=O` [Example 59, 3-(((5-chloropyridin-2-yl)methyl)amino)-5-(1,3-dimethyl-1H-pyrazol-4-yl)-4H-benzo[e][1,2,4]thiadiazine 1,1-dioxide], the EC50 is 248 nM.
Next, `COCCNC1=NS(=O)(=O)c2cccc(-c3cc(C(F)(F)F)ccc3Cl)c2N1` [Example 134, 5-(2-chloro-5-(trifluoromethyl)phenyl)-3-((2-methoxyethyl)amino)-4H-benzo[e][1,2,4]thiadiazine 1,1-dioxide]: 723 nM.
With `Cc1cccc(CNC2=NS(=O)(=O)c3cccc(-c4cc(F)cc(F)c4)c3N2)n1` [Example 79, 5-(3,5-difluorophenyl)-3-(((6-methylpyridin-2-yl)methyl)amino)-4H-benzo[e][1,2,4]thiadiazine 1,1-dioxide], the EC50 is 368 nM.
As to `O=S1(=O)N=C(NCCF)Nc2c(-c3cccc(F)c3Cl)cc(F)cc21` [Example 11, 5-(2-chloro-3-fluorophenyl)-7-fluoro-3-((2-fluoroethyl)amino)-4H-benzo[e][1,2,4]thiadiazine 1,1-dioxide], the EC50 is 127 nM.
On to `CC(C)NC1=NS(=O)(=O)c2cccc(-c3cccc(F)c3Cl)c2N1` [Example 158, 5-(2-chloro-3-fluorophenyl)-3-(isopropylamino)-4H-benzo[e][1,2,4]thiadiazine 1,1-dioxide], for which the EC50 was 229 nM.
Next, `CC(C)c1ccc(NC2=NS(=O)(=O)c3cccc(-c4ccccc4Cl)c3N2)cn1` [Example 117, 5-(2-chlorophenyl)-3-((6-isopropylpyridin-3-yl)amino)-4H-benzo[e][1,2,4]thiadiazine 1,1-dioxide]: 197 nM.
Regarding `Cc1cc(-c2cccc3c2NC(Nc2ccc(C(C)C)cc2)=NS3(=O)=O)n[nH]1` [Example 98, 3-((4-isopropylphenyl)amino)-5-(5-methyl-1H-pyrazol-3-yl)-4H-benzo[e][1,2,4]thiadiazine 1,1-dioxide], the EC50 is 289 nM.
In the case of `O=S1(=O)N=C(NCCF)Nc2c(-c3ccccc3Cl)cccc21` [Example 45, 5-(2-chlorophenyl)-3-((2-fluoroethyl)amino)-4H-benzo[e][1,2,4]thiadiazine 1,1-dioxide], the EC50 is 305 nM.
Regarding `COC(C)CNC1=NS(=O)(=O)c2cccc(-c3ccccc3C#N)c2N1` (centres unmarked) [Example 145, 2-(3-((2-methoxypropyl)amino)-1,1-dioxido-4H-benzo[e][1,2,4]thiadiazin-5-yl)benzonitrile], the EC50 is 141 nM.
Take `COC(C)CNC1=NS(=O)(=O)c2cccc(-c3cccc(F)c3Cl)c2N1` (centres unmarked) [Example 33, 5-(2-chloro-3-fluorophenyl)-3-((2-methoxypropyl)amino)-4H-benzo[e][1,2,4]thiadiazine 1,1-dioxide]: the EC50 is 38.2 nM.
`O=S1(=O)N=C(NCCc2ccccn2)Nc2c(-c3cc(F)cc(F)c3)cccc21` [Example 80, 5-(3,5-difluorophenyl)-3-((2-(pyridin-2-yl)ethyl)amino)-4H-benzo[e][1,2,4]thiadiazine 1,1-dioxide]: the EC50 was 897 nM.
Next, `O=S1(=O)N=C(NCCCF)Nc2c(-c3cccc(F)c3Cl)cccc21` [Example 152, 5-(2-chloro-3-fluorophenyl)-3-((3-fluoropropyl)amino)-4H-benzo[e][1,2,4]thiadiazine 1,1-dioxide]: 223 nM; `O=S1(=O)N=C(NCc2ccccn2)Nc2c(-c3cccc(F)c3Cl)cccc21` [Example 31, 5-(2-chloro-3-fluorophenyl)-3-((pyridin-2-ylmethyl)amino)-4H-benzo[e][1,2,4]thiadiazine 1,1-dioxide]: 29.9 nM.
`COC1CC(NC2=NS(=O)(=O)c3cccc(-c4cccc(F)c4Cl)c3N2)C1` (centres unmarked) [Example 167, 5-(2-chloro-3-fluorophenyl)-3-((3-methoxycyclobutyl)amino)-4H-benzo[e][1,2,4]thiadiazine 1,1-dioxide]: the EC50 was 394 nM.
In the case of `COCCNC1=NS(=O)(=O)c2cccc(-c3cccc(Cl)c3F)c2N1` [Example 135, 5-(3-chloro-2-fluorophenyl)-3-((2-methoxyethyl)amino)-4H-benzo[e][1,2,4]thiadiazine 1,1-dioxide], the EC50 was 841 nM.
Next, `COCCNC1=NS(=O)(=O)c2cccc(-c3ccnc(F)c3Cl)c2N1` [Example 36, 5-(3-chloro-2-fluoropyridin-4-yl)-3-((2-methoxyethyl)amino)-4H-benzo[e][1,2,4]thiadiazine 1,1-dioxide]: 50.4 nM; `COc1ccc(CCNC2=NS(=O)(=O)c3cccc(-c4cccc(F)c4Cl)c3N2)cc1` [Example 72, 5-(2-chloro-3-fluorophenyl)-3-((4-methoxyphenethyl)amino)-4H-benzo[e][1,2,4]thiadiazine 1,1-dioxide]: 39.8 nM.
As for `Cn1cccc(CNC2=NS(=O)(=O)c3cccc(-c4cccc(F)c4Cl)c3N2)c1=O` [Example 46, 3-(((5-(2-chloro-3-fluorophenyl)-1,1-dioxido-4H-benzo[e][1,2,4]thiadiazin-3-yl)amino)methyl)-1-methylpyridin-2(1H)-one], the figure is 87.9 nM.
`CCc1ccccc1-c1cccc2c1NC(NCCOC)=NS2(=O)=O` [Example 163, 5-(2-ethylphenyl)-3-((2-methoxyethyl)amino)-4H-benzo[e][1,2,4]thiadiazine 1,1-dioxide]: the EC50 is 180 nM.
Regarding `COCCNC1=NS(=O)(=O)c2cccc(-c3ccccc3C(F)(F)F)c2N1` [Example 124, 3-((2-methoxyethyl)amino)-5-(2-(trifluoromethyl)phenyl)-4H-benzo[e][1,2,4]thiadiazine 1,1-dioxide], the EC50 was 64.4 nM.
As for `CC(NC1=NS(=O)(=O)c2cc(F)cc(-c3cccc(F)c3Cl)c2N1)c1cscn1` (centres unmarked) [Example 9, 5-(2-chloro-3-fluorophenyl)-7-fluoro-3-((1-(thiazol-4-yl)ethyl)amino)-4H-benzo[e][1,2,4]thiadiazine 1,1-dioxide], the figure is 146 nM.
As for `CCNC1=NS(=O)(=O)c2cccc(-c3cc(F)ccc3F)c2N1` [Example 143, 5-(2,5-difluorophenyl)-3-(ethylamino)-4H-benzo[e][1,2,4]thiadiazine 1,1-dioxide], the figure is 443 nM; as for `O=S1(=O)N=C(NCCc2ccncc2)Nc2c(-c3cccc(F)c3Cl)cccc21` [Example 68, 5-(2-chloro-3-fluorophenyl)-3-((2-(pyridin-4-yl)ethyl)amino)-4H-benzo[e][1,2,4]thiadiazine 1,1-dioxide], 305 nM; as for `O=S1(=O)N=C(NCc2ccccn2)Nc2c(-c3cc(F)cc(F)c3)cccc21` [Example 83, 5-(3,5-difluorophenyl)-3-((pyridin-2-ylmethyl)amino)-4H-benzo[e][1,2,4]thiadiazine 1,1-dioxide], 423 nM.
Next, `O=S1(=O)N=C(NCc2ccccn2)Nc2c(-c3ccccc3Cl)cccc21` [Example 41, 5-(2-chlorophenyl)-3-((pyridin-2-ylmethyl)amino)-4H-benzo[e][1,2,4]thiadiazine 1,1-dioxide]: 26.4 nM.
Regarding `O=S1(=O)N=C(NCC2CCC2)Nc2c(-c3cc(F)cc(F)c3F)cccc21` [Example 130, 3-((cyclobutylmethyl)amino)-5-(2,3,5-trifluorophenyl)-4H-benzo[e][1,2,4]thiadiazine 1,1-dioxide], the EC50 was 87.9 nM.
